For assay [1], the target named is mutEGFR (D770_N771insNPG, T790). Description: mutEGFR (D770_N771insNPG, T790) kinase assay. Format: biochemical, human.
Assay [2] concerns BA/F3 (insSVD) cells. Kind of assay: Ba/F3 cell survival assay (Cell Titer-Glo), EGFR-insSVD. Format: cell-based. The note with it: Mus musculus, BaF3, 48 h, without IL-3, with EGF. The essentials:
(§1)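 Ba/F3 cells stably expressing EGFR-insSVD or insSVD T790M via retrovirus (puromycin-selected), switched from IL-3 to 10 ng/mL EGF for 2 days, then plated at 4000 cells/well. Compound added by 100 nL pin transfer; 48 h at 37° C. Viability by CellTiter-Glo luminescence.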
(In general: ATP-based viability assays read luminescence as a measure of living cells.)

In assay [3] the test system is BA/F3 (EGFR D770_N771 insSVD T790M) cells. Kind of assay: Ba/F3 cell survival assay (Cell Titer-Glo), EGFR-insSVD T790M. The class given is cell-based. The note with it: Ba/F3 EGFR-D770-N771ins_SVD; 48 h, without IL-3, with EGF. The essentials: as §1
Assay [4] addresses mutEGFR (D770_N771insSVD) (Homo sapiens, UniProt P00533, INS767SVD). Kind of assay: Exon20-mutant-EGFR (D770_N771insSVD) TR-FRET kinase assay. Format: biochemical. To be noted: 2 mM ATP, 15 min preincubation. The gist of the method:
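GST-fused human EGFR fragment R669-A1210 carrying the SVD insertion, Sf9-expressed, typically 15 pg/μl, was preincubated with compound for 15 min at 22° C in pH 7.0 Hepes/MgCl2 buffer. Phosphorylation was read by HTRF (665/620 nm ratio), normalised to no-inhibitor and no-enzyme controls.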
(In general: TR-FRET usually uses a lanthanide donor and a delayed reading to cut background.)

Sequence of mutEGFR (D770_N771insSVD) (P00533 with tags, fused parts or gaps INS767SVD limits assumed): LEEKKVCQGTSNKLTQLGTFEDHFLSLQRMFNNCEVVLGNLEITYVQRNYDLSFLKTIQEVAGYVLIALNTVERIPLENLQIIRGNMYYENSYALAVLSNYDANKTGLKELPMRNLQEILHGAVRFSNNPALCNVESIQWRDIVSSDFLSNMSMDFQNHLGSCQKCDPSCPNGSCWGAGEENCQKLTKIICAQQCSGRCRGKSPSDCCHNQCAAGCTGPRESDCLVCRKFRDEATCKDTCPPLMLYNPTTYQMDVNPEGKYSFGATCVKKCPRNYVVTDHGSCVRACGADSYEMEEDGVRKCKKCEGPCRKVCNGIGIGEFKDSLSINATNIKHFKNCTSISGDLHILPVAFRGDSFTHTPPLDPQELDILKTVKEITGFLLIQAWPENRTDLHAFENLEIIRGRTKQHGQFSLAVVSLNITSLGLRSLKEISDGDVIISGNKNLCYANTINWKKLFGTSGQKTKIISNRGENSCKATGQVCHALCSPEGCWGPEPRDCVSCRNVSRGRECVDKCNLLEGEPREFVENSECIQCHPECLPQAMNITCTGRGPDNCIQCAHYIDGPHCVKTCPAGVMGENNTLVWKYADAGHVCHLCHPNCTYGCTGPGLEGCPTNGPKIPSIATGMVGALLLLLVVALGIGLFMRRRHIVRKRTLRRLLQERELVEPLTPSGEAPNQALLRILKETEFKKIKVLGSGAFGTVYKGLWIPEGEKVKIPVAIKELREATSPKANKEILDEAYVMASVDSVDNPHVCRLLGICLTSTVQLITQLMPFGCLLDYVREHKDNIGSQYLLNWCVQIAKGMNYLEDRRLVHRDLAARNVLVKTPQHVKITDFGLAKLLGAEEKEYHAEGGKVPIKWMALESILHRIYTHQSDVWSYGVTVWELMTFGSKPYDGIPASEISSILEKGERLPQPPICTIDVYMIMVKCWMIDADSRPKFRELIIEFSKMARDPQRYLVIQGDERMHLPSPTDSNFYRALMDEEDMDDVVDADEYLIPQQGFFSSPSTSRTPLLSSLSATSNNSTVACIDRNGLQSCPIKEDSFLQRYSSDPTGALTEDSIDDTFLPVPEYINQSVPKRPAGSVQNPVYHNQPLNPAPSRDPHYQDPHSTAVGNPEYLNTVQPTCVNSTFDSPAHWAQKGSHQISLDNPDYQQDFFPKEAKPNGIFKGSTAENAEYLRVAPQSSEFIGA
Sequence of mutEGFR (D770_N771insNPG, T790) (P00533 with tags, fused parts or gaps INS770NPG limits assumed): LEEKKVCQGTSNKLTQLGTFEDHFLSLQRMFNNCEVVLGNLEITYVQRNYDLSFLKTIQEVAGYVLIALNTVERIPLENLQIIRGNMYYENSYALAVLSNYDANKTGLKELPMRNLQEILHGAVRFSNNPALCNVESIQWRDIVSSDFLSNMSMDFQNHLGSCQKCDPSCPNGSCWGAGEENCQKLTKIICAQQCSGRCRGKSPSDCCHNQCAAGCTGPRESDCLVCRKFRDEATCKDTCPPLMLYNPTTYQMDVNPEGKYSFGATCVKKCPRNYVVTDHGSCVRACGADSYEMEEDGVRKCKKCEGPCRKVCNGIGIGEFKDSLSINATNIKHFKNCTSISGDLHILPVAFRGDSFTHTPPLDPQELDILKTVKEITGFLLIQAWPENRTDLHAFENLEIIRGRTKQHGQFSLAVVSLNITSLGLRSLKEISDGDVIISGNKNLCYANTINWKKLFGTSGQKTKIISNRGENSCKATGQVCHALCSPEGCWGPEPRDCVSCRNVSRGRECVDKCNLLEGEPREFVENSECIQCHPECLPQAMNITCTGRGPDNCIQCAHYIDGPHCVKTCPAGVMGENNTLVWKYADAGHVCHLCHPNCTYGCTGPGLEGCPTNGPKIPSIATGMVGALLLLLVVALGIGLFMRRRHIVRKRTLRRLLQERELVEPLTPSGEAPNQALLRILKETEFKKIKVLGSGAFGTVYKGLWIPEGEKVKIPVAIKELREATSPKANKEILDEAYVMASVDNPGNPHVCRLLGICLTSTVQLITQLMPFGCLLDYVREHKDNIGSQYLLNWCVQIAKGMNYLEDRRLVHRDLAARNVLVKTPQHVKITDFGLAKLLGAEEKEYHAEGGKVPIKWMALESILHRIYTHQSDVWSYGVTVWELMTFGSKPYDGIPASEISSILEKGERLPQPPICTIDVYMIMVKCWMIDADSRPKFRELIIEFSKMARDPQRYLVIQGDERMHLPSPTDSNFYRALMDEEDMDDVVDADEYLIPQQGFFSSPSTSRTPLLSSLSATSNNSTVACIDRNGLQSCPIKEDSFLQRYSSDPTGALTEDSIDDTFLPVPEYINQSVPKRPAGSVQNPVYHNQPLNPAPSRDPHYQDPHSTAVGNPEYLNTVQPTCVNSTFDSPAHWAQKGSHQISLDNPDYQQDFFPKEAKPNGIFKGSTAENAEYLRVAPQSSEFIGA

A word on the IC50: it is the point on the concentration scale where inhibition reaches its midpoint. A higher IC50 goes with weaker potency in that assay. `C=CS(=O)(=O)N1C[C@@H](C)C[C@H]1COc1cnccc1-c1[nH]c2cccnc2c1-c1ccccc1` [Example 111, 2-(3-{[(2S,4S)-1-(ethenesulfonyl)-4-methylpyrrolidin-2-yl]methoxy}pyridin-4-yl)-3-phenyl-1H-pyrrolo[3,2-b]pyridine]: the concentration for half-maximal inhibition (IC50) in assay [1] was 0.33 nM; in assay [2], 10.9 nM; in assay [3], 77.7 nM; in assay [4], 0.135 nM.
